These results are taken from BindingDB's records for doi:10.1016/S0960-894X(00)80683-6 (1993).

Assay [1] concerns the target Gastrin/cholecystokinin type B receptor (Cavia porcellus). The assay is described as follows: Ability to inhibit the binding of [125I]-gastrin to gastric glands in guinea pig.
The target is the same in assay [2]. As to the kind of experiment: Ability to inhibit the binding of [125I]CCK-8 to Cholecystokinin type B receptor in guinea pig cortex.
Assay [3] shares this target. The description is as above. This is another data set of the same source.

By IC50 is commonly meant the point on the concentration scale where inhibition reaches its midpoint. `CN1CCN(C(=O)CN2C(=O)C(NC(=O)Nc3ccc(Cl)cc3)N=C(c3ccccc3)c3ccccc32)CC1` (configuration not stated) [1-(4-Chloro-phenyl)-3-{1-[2-(4-methyl-piperazin-1-yl)-2-oxo-ethyl]-2-oxo-5-phenyl-2,3-dihydro-1H-benzo[e][1,4]diazepin-3-yl}-urea]: the half-inhibitory concentration (IC50) in assay [1] is 0.0026 µM; in assay [2], 0.008 µM.
The like results for `O=C(Nc1cccc2ccccc12)NC1CCc2ccccc2N(CC(=O)N2CCCC2)C1=O` (configuration not stated) [1-Naphthalen-1-yl-3-[2-oxo-1-(2-oxo-2-pyrrolidin-1-yl-ethyl)-2,3,4,5-tetrahydro-1H-benzo[b]azepin-3-yl]-urea] were, in that order, 0.46 µM and 0.65 µM.
As for `Cc1cccc(NC(=O)NC2CCc3ccccc3N(CC(=O)N3CCN(C)CC3)C2=O)c1` (configuration not stated) [1-{1-[2-(4-Methyl-piperazin-1-yl)-2-oxo-ethyl]-2-oxo-2,3,4,5-tetrahydro-1H-benzo[b]azepin-3-yl}-3-m-tolyl-urea], the IC50 was 0.61 µM in assay [1] and 5 µM in assay [3].
In the case of `CC(C)(C)OC(=O)CN1C(=O)C(NC(=O)Nc2cccc3ccccc23)CCc2ccccc21` (configuration not stated) [[3-(3-Naphthalen-1-yl-ureido)-2-oxo-2,3,4,5-tetrahydro-benzo[b]azepin-1-yl]-acetic acid tert-butyl ester], the IC50 worked out at 0.48 µM in assay [1] and 0.15 µM in assay [3].
For the compound `COc1cccc(NC(=O)NC2CCc3ccccc3N(CC(=O)O)C2=O)c1` (configuration not stated) [{3-[3-(3-Methoxy-phenyl)-ureido]-2-oxo-2,3,4,5-tetrahydro-benzo[b]azepin-1-yl}-acetic acid], the IC50 in assay [1] turned out to be 3.1 µM; in assay [2] it was 8.6 µM.
The like results for `CC(C)(C)OC(=O)CN1C(=O)C(NC(=O)Nc2ccc(Cl)cc2)CCc2ccccc21` (configuration not stated) [{3-[3-(4-Chloro-phenyl)-ureido]-2-oxo-2,3,4,5-tetrahydro-benzo[b]azepin-1-yl}-acetic acid tert-butyl ester] were, in that order, 0.12 µM and 0.18 µM.
